US20230210999A1, “TARGETED PROTEASE DEGRADATION (TED) PLATFORM” (EUBULUS BIOTHERAPEUTICS INC., priority 2020, published 2023)

How the values were obtained:
[1] = test system: Daudi cells; assay: Cell proliferation experiment, Daudi; type: cell-based, human; details: Homo sapiens, Daudi, 72 h, Daudi cells, 72 h; read-out: Inhibitory activity IC50 of tested compounds on Daudi cells
In short: (§1)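 Cells were passaged at least twice, harvested in log phase and plated in 96 wells. Compound in complete medium was added at 5-fold gradient concentrations, duplicates per concentration. After 72 h culture, Alamar blue fluorescence was measured and IC50 fitted.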

[2] = test system: NCIH82 cells; assay: Cell proliferation experiment, NCI-H82; type: cell-based, human; details: Homo sapiens, NCI-H82, 72 h, NCIH82 cells, 72 h; read-out: Inhibitory activity IC50 of tested compounds on NCIH82 cells
In short: as §1

[3] = test system: MV4;11 cells; assay: Cell proliferation experiment (Alamar blue, 72 h), MV4;11; type: cell-based, human; details: Homo sapiens, MV4-11, 72 h, MV4;11 cells, 72 h; read-out: Inhibitory activity IC50 of tested compounds on MV4;11 cells
In short: as §1

[4] = test system: HT-29 cells; assay: Cell proliferation experiment, HT-29; type: cell-based; details: Homo sapiens; HT-29 cells, 72 h; read-out: Inhibitory activity IC50 of tested compounds on HT-29 cells
In short: as §1

[5] = test system: THP-1 cells; assay: Cell proliferation experiment, THP-1; type: cell-based; details: Homo sapiens, 72 h, read-out: Inhibitory activity IC50 of tested compounds on THP-1 cells
Experimental: (§2) Reagents: RPMI-1640 medium, McCoy's 5A medium, IMDM medium, MEM medium, L-15 medium, fetal bovine serum. Penicillin-Streptomycin double antibody, trypsin, etc., 2-mercaptoethanol, NEAA, pyruvate, etc.
(§3) The cells were cultured in conventional ways, and the cells should be passed at least 2 generations before plating. Cells at the logarithmic growth phase were collected, prepared into single cell suspensions and counted. The concentration of cells was adjusted to the desired concentration, and cells were inoculated into a 96-well cell culture plate at 100 μl per well. 100 μL of complete medium of the test compound were added to each well, set up 2 duplicate wells for each concentration, and diluted with a 5-fold gradient, and continued to culture for 72 h. All cells were subjected to IC50 test for corresponding samples. The experimental results are shown in Test Example 4.
(§4) The fluorescence intensity of each well was detected using the Alarm blue method, and IC50 was calculated.
(§5) IC50 was calculated according to the following formula:
(§6) Y=Max+(Min−Max)/[1+(X/IC50)×Slope]
(§7) wherein Min, Max and Slope represent the minimum, maximum and slope respectively.

[6] = test system: U-87MG cells; assay: Cell proliferation experiment, U-87MG; type: cell-based; details: Homo sapiens; U-87MG cells, 72 h; read-out: Inhibitory activity IC50 of tested compounds on U-87MG cells
In short: as §1

[7] = test system: HL-60 cells; assay: Cell proliferation experiment, HL-60; type: cell-based; details: Homo sapiens, 72 h, read-out: Inhibitory activity IC50 of tested compounds on HL-60 cells
Experimental: as §2, §3, §4, §5, §6, §7

[8] = test system: MDA-MB-231 cells; assay: Cell proliferation experiment, MDA-MB-231; type: cell-based, human; details: Homo sapiens, MDA-MB-231, 72 h, MDA-MB-231 cells, 72 h; read-out: Inhibitory activity IC50 of tested compounds on MDA-MB-231 cells
In short: as §1

[9] = test system: HUVEC cells; assay: Cell proliferation experiment, HUVEC; type: cell-based; details: Homo sapiens, 72 h, read-out: Inhibitory activity IC50 of tested compounds on HUVEC cells
Experimental: as §2, §3, §4, §5, §6, §7

[10] = test system: Hela cells; assay: Cell proliferation experiment, Hela; type: cell-based; details: Homo sapiens, 72 h, read-out: Inhibitory activity IC50 of tested compounds on Hela cells
Experimental: as §2, §3, §4, §5, §6, §7

[11] = test system: MOL4-4 cells; assay: Cell proliferation experiment, MOL4-4; type: cell-based; details: Homo sapiens, 72 h, read-out: Inhibitory activity IC50 of tested compounds on MOL4-4 cells
Experimental: as §2, §3, §4, §5, §6, §7

Row | IC50 [1] [nM] | IC50 [2] [nM] | IC50 [3] [nM] | IC50 [4] [nM] | IC50 [5] [nM] | IC50 [6] [nM] | IC50 [7] [nM] | IC50 [8] [nM] | IC50 [10] [nM] | Structure (SMILES) | IC50 [9] [nM] | IC50 [11] [nM]
1 | 100 to 1000 | ≤ 1000 | ≤ 100 | 300 to 1000 | ≤ 1000 | 100 to 500 | ≤ 1000 | – | – | CC[C@@H]1C(=O)N(C)c2cnc(Nc3ccc(C(=O)NC4CCN(CCOCCNCCC#Cc5cccc6c5CN(C5CCC(=O)NC5=O)C6=O)CC4)cc3OC)nc2N1C1CCCC1 (stereo partly drawn) [Compound 874] | – | –
2 | ≤ 100 | ≤ 1000 | ≤ 100 | 300 to 1000 | ≤ 1000 | ≤ 100 | ≤ 1000 | ≤ 500 | ≤ 1000 | CC[C@@H]1C(=O)N(C)c2cnc(Nc3ccc(C(=O)NCCCOCCOCCCN(C)CCC#Cc4cccc5c4CN(C4CCC(=O)NC4=O)C5=O)cc3OC)nc2N1C1CCCC1 (stereo partly drawn) [Compound 883] | ≤ 1000 | ≤ 100
3 | ≤ 100 | ≤ 1000 | ≤ 100 | 300 to 1000 | ≤ 1000 | ≤ 100 | ≤ 1000 | ≤ 500 | ≤ 1000 | CC[C@@H]1C(=O)N(C)c2cnc(Nc3ccc(C(=O)NCCCN(C)CCOCCCC#Cc4cccc5c4CN(C4CCC(=O)NC4=O)C5=O)cc3OC)nc2N1C1CCCC1 (stereo partly drawn) [Compound 884] | ≤ 1000 | ≤ 100
4 | ≤ 100 | ≤ 1000 | ≤ 100 | 300 to 1000 | ≤ 1000 | 100 to 500 | ≤ 1000 | ≤ 500 | ≤ 1000 | CC[C@@H]1C(=O)N(C)c2cnc(Nc3ccc(C(=O)NCCCOCCNCCC#Cc4cccc5c4CN(C4CCC(=O)NC4=O)C5=O)cc3OC)nc2N1C1CCCC1 (stereo partly drawn) [Compound 888] | ≤ 1000 | ≤ 100
5 | ≤ 100 | ≤ 1000 | ≤ 100 | ≤ 300 | ≤ 1000 | ≤ 100 | ≤ 1000 | ≤ 500 | ≤ 1000 | CC[C@@H]1C(=O)N(C)c2cnc(Nc3ccc(C(=O)NC4CCC(N5CCN(CCC#Cc6cccc7c6CN(C6CCC(=O)NC6=O)C7=O)CC5)CC4)cc3OC)nc2N1C1CCCC1 (stereo partly drawn) [Compound 889] | ≤ 1000 | ≤ 100
6 | ≤ 100 | ≤ 1000 | ≤ 100 | 300 to 1000 | – | 100 to 500 | ≤ 1000 | ≤ 500 | – | CC[C@@H]1C(=O)N(C)c2cnc(Nc3ccc(C(=O)NCCCOCCOCCNCCC#Cc4cccc5c4CN(C4CCC(=O)NC4=O)C5=O)cc3OC)nc2N1C1CCCC1 (stereo partly drawn) [Compound 890] | ≤ 1000 | –
7 | – | ≤ 1000 | 100 to 1000 | 300 to 1000 | – | 100 to 500 | ≤ 1000 | – | – | CC[C@@H]1C(=O)N(C)c2cnc(Nc3ccc(C(=O)NCCC#Cc4cccc5c4CN(C4CCC(=O)NC4=O)C5=O)cc3OC)nc2N1C1CCCC1 (stereo partly drawn) [Compound 891] | – | –
8 | 100 to 1000 | ≤ 1000 | ≤ 100 | 300 to 1000 | – | ≤ 100 | ≤ 1000 | ≤ 500 | ≤ 1000 | CC[C@@H]1C(=O)N(C)c2cnc(Nc3ccc(C(=O)NCCCOCCCOCCNCCC#Cc4cccc5c4CN(C4CCC(=O)NC4=O)C5=O)cc3OC)nc2N1C1CCCC1 (stereo partly drawn) [Compound 892] | ≤ 1000 | –
9 | ≤ 100 | ≤ 1000 | ≤ 100 | ≤ 300 | – | ≤ 100 | ≤ 1000 | ≤ 500 | ≤ 1000 | CC[C@@H]1C(=O)N(C)c2cnc(Nc3ccc(C(=O)NCCCOCCNCCOCCC#Cc4cccc5c4CN(C4CCC(=O)NC4=O)C5=O)cc3OC)nc2N1C1CCCC1 (stereo partly drawn) [Compound 893] | ≤ 1000 | –
10 | 100 to 1000 | ≤ 1000 | ≤ 100 | 300 to 1000 | – | 100 to 500 | ≤ 1000 | – | – | CC[C@@H]1C(=O)N(C)c2cnc(Nc3ccc(C(=O)NC4CCN(CCCOCCNCCC#Cc5cccc6c5CN(C5CCC(=O)NC5=O)C6=O)CC4)cc3OC)nc2N1C1CCCC1 (stereo partly drawn) [Compound 895] | – | –
11 | 100 to 1000 | ≤ 1000 | ≤ 100 | ≤ 300 | – | 100 to 500 | ≤ 1000 | – | – | CC[C@@H]1C(=O)N(C)c2cnc(Nc3ccc(C(=O)NC4CCN(CCCOCCN(C)CCC#Cc5cccc6c5CN(C5CCC(=O)NC5=O)C6=O)CC4)cc3OC)nc2N1C1CCCC1 (stereo partly drawn) [Compound 897] | – | –
12 | ≤ 100 | ≤ 1000 | ≤ 100 | ≤ 300 | – | ≤ 100 | ≤ 1000 | – | – | CC[C@@H]1C(=O)N(C)c2cnc(Nc3ccc(C(=O)NC4CCN(CCNCCCOCCCC#Cc5cccc6c5CN(C5CCC(=O)NC5=O)C6=O)CC4)cc3OC)nc2N1C1CCCC1 (stereo partly drawn) [Compound 899] | – | –
13 | ≤ 100 | ≤ 1000 | ≤ 100 | ≤ 300 | – | ≤ 100 | ≤ 1000 | – | – | CC[C@@H]1C(=O)N(C)c2cnc(Nc3ccc(C(=O)NC4CCN(CCN(C)CCCOCCCC#Cc5cccc6c5CN(C5CCC(=O)NC5=O)C6=O)CC4)cc3OC)nc2N1C1CCCC1 (stereo partly drawn) [Compound 900] | – | –
14 | – | ≤ 1000 | ≤ 100 | 300 to 1000 | – | 100 to 500 | ≤ 1000 | – | – | CC[C@@H]1C(=O)N(C)c2cnc(Nc3ccc(C(=O)NC4CCN(CCCNCCCOCCCC#Cc5cccc6c5CN(C5CCC(=O)NC5=O)C6=O)CC4)cc3OC)nc2N1C1CCCC1 (stereo partly drawn) [Compound 901] | – | –
15 | ≤ 100 | ≤ 1000 | – | ≤ 300 | – | ≤ 100 | ≤ 1000 | – | – | CC[C@@H]1C(=O)N(C)c2cnc(Nc3ccc(C(=O)NC4CCN(CCOCCCC#Cc5cccc6c5CN(C5CCC(=O)NC5=O)C6=O)CC4)cc3OC)nc2N1C1CCCC1 (stereo partly drawn) [Compound 902] | – | –
16 | ≤ 100 | ≤ 1000 | ≤ 100 | 300 to 1000 | – | ≤ 100 | ≤ 1000 | – | – | CC[C@@H]1C(=O)N(C)c2cnc(Nc3ccc(C(=O)NC4CCN(CCNCCCOCCC#Cc5cccc6c5CN(C5CCC(=O)NC5=O)C6=O)CC4)cc3OC)nc2N1C1CCCC1 (stereo partly drawn) [Compound 903] | – | –
17 | – | > 1000 | ≤ 100 | > 1000 | – | 500 to 1000 | ≤ 1000 | – | – | CC[C@@H]1C(=O)N(C)c2cnc(Nc3ccc(C(=O)NC4CCN(CCCNCCCOCCC#Cc5cccc6c5CN(C5CCC(=O)NC5=O)C6=O)CC4)cc3OC)nc2N1C1CCCC1 (stereo partly drawn) [Compound 904] | – | –
18 | – | > 1000 | ≤ 100 | > 1000 | – | 100 to 500 | ≤ 1000 | – | – | CC[C@@H]1C(=O)N(C)c2cnc(Nc3ccc(C(=O)NC4CCN(CCCNCCOCCC#Cc5cccc6c5CN(C5CCC(=O)NC5=O)C6=O)CC4)cc3OC)nc2N1C1CCCC1 (stereo partly drawn) [Compound 905] | – | –
